From ChEMBL document CHEMBL3046363, “Synthesis, fungicidal, and insecticidal activities of beta-Methoxyacrylate-containing N-acetyl pyrazoline derivatives” (J Agric Food Chem, 2008)
In brackets after ≈: the same amount, converted by molar mass. Activity calls are given as the source filed them. The rule behind the calls is not given here.

How the values were obtained:
Mythimna separata [1] = assay: In vivo insecticidal activity against Mythimna separata (Oriental armyworm) assessed as mortality at 500 ug/ml after 72 hr; assay type: functional
Tetranychus cinnabarinus = assay: In vivo insecticidal activity against Tetranychus cinnabarinus (carmine spider mite) assessed as mortality at 500 ug/ml after 72 hr; assay type: functional
Aphis medicaginis = assay: In vivo insecticidal activity against Aphis medicaginis assessed as mortality at 1 g/l after 72 hr; assay type: functional, organism-based
Podosphaera fuliginea [2] = assay: In vivo fungicidal activity against Podosphaera fuliginea infected cucumber plants assessed as inhibition of disease symptoms at 200 ug/ml treated one day prior to fungal spore inoculation measured after one week; assay type: functional
[3] = system: Pseudoperonospora cubensis; assay: In vivo fungicidal activity against Pseudoperonospora cubensis infected in cucumber plants assessed as inhibition of disease symptoms at 200 ug/ml treated one day prior to fungal spore inoculation measured after one week; assay type: functional
Botrytis cinerea = assay: In vivo fungicidal activity against Botryotinia fuckeliana infected in cucumber plants assessed as inhibition of disease symptoms at 200 ug/ml treated one day prior to fungal spore inoculation measured after one week; assay type: functional, organism-based
Rhizoctonia solani = assay: In vivo fungicidal activity against Rhizoctonia solani infected in cucumber plants assessed as inhibition of disease symptoms at 200 ug/ml treated one day prior to fungal spore inoculation measured after one week; assay type: functional, organism-based
Nilaparvata lugens = assay: In vivo insecticidal activity against fifth instar larval stage of Nilaparvata lugens (brown planthopper) in […] rice seedlings assessed as mortality at 1 g/l treated for 5 secs before larval infestation measured after 72 hr; assay type: functional, organism-based
Mythimna separata [4] = assay: In vivo insecticidal activity against Mythimna separata (Oriental armyworm) assessed as mortality after 72 hr; assay type: functional
Podosphaera fuliginea [5] = assay: In vivo fungicidal activity against Podosphaera fuliginea infected cucumber plants assessed as inhibition of disease symptoms treated one day prior to fungal spore inoculation measured after one week; assay type: functional, organism-based
[6] = system: Pseudoperonospora cubensis; assay: In vivo fungicidal activity against Pseudoperonospora cubensis infected in cucumber plants assessed as inhibition of disease symptoms treated one day prior to fungal spore inoculation measured after one week; assay type: functional, organism-based

Row | Compound | mortality at 500 µg/mL (Mythimna separata [1]) [%] | mortality at 500 µg/mL (Tetranychus cinnabarinus) [%] | mortality (Aphis medicaginis) | inhibition in vivo at 200 µg/mL (Podosphaera fuliginea [2]) [%] | inhibition in vivo at 200 µg/mL [3] [%] | inhibition (Botrytis cinerea) | inhibition (Rhizoctonia solani) | mortality (Nilaparvata lugens) | LC50 (Mythimna separata [4]) [µg/mL] | IC50 (Podosphaera fuliginea [5]) [µg/mL] | IC50 [6] [µg/mL]
1 | CO/C=C(/C(=O)OC)c1ccccc1COc1cccc(C2=NN(C(C)=O)C(c3ccc(Cl)cc3)C2)c1 (stereo not drawn) | 100 | < 60 | inactive | < 60 | ≥ 60 | inactive | inactive | inactive |  |  | 
2 | CO/C=C(/C(=O)OC)c1ccccc1COc1ccc(C2=NN(C(C)=O)C(c3ccc(Br)cc3)C2)cc1 (stereo not drawn) |  |  |  | < 60 | < 60 | inactive | inactive |  |  |  | 
3 | CO/C=C(/C(=O)OC)c1ccccc1COc1cccc(C2=NN(C(C)=O)C(c3ccccc3F)C2)c1 (stereo not drawn) |  |  |  | < 60 | ≥ 90 | inactive | inactive |  |  |  | 
4 | CO/C=C(/C(=O)OC)c1ccccc1COc1cccc(C2=NN(C(C)=O)C(c3cc(OC)c(OC)c(OC)c3)C2)c1 (stereo not drawn) |  |  |  | < 60 | < 60 | inactive | inactive |  |  |  | 
5 | CO/C=C(/C(=O)OC)c1ccccc1COc1cccc(C2=NN(C(C)=O)C(c3cccs3)C2)c1 (stereo not drawn) |  |  |  | < 60 | 100 | inactive | inactive |  |  |  | 
6 | CO/C=C(/C(=O)OC)c1ccccc1COc1ccccc1C1=NN(C(C)=O)C(c2ccc(OC)c(OC)c2)C1 (stereo not drawn) |  |  |  | < 60 | < 60 | inactive | inactive |  |  |  | 
7 | CO/C=C(/C(=O)OC)c1ccccc1COc1ccc(C2=NN(C(C)=O)C(c3cccc(F)c3)C2)cc1 (stereo not drawn) |  |  |  | < 60 | < 60 | inactive | inactive |  |  |  | 
8 | CCc1ccc(C2CC(c3ccc(OCc4ccccc4/C(=C\OC)C(=O)OC)cc3)=NN2C(C)=O)cc1 (stereo not drawn) |  |  |  | < 60 | 100 | inactive | inactive |  |  |  | 
9 | CO/C=C(/C(=O)OC)c1ccccc1COc1ccc(C2=NN(C(C)=O)C(c3ccc(Cl)cc3)C2)cc1 (stereo not drawn) |  |  |  | < 60 | 100 | inactive | inactive |  |  |  | 
10 | CO/C=C(/C(=O)OC)c1ccccc1COc1ccc(C2=NN(C(C)=O)C(c3ccc4c(c3)OCO4)C2)cc1 (stereo not drawn) |  |  |  | < 60 | 100 | inactive | inactive |  |  |  | 
11 | CO/C=C(/C(=O)OC)c1ccccc1COc1ccc(C2=NN(C(C)=O)C(c3ccc(C(C)(C)C)cc3)C2)cc1 (stereo not drawn) |  |  |  | < 60 | < 60 | inactive | inactive |  |  |  | 
12 | CO/C=C(/C(=O)OC)c1ccccc1COc1cccc(C2=NN(C(C)=O)C(c3cccc(F)c3)C2)c1 (stereo not drawn) |  |  |  | < 60 | < 60 | inactive | inactive |  |  |  | 
13 | CO/C=C(/C(=O)OC)c1ccccc1COc1cccc(C2=NN(C(C)=O)C(c3ccc(C)cc3)C2)c1 (stereo not drawn) | ≥ 90 | < 60 |  | < 60 | 100 | inactive | inactive |  |  |  | 
14 | CCOCn1c(-c2ccc(Cl)cc2)c(C#N)c(Br)c1C(F)(F)F [CHLORFENAPYR] | 100 |  |  |  |  |  |  |  | 18.5 (≈ 45.4 µM) |  | 
15 | CO/N=C(/C(=O)OC)c1ccccc1COc1ccccc1C [KRESOXIM-METHYL] |  |  |  | 100 | ≥ 90 |  |  |  |  | 1.6 (≈ 5.11 µM) | 24.1 (≈ 76.9 µM)
16 | CO/C=C(/C(=O)OC)c1ccccc1COc1ccccc1C1=NN(C(C)=O)C(c2ccc(Cl)cc2)C1 (stereo not drawn) |  |  |  | < 60 | < 60 | inactive | inactive |  |  |  | 
17 | CO/C=C(/C(=O)OC)c1ccccc1COc1ccc(C2=NN(C(C)=O)C(c3ccc(Cl)cc3Cl)C2)cc1 (stereo not drawn) |  |  |  | < 60 | < 60 | inactive | inactive |  |  |  | 
18 | CO/C=C(/C(=O)OC)c1ccccc1COc1cccc(C2=NN(C(C)=O)C(c3ccc4c(c3)OCO4)C2)c1 (stereo not drawn) | 100 | < 60 | inactive | ≥ 90 | 100 | inactive | inactive | inactive | 26.6 (≈ 50.3 µM) | 57.6 (≈ 109 µM) | 26.6 (≈ 50.3 µM)
